# Measurements from paper PMC12040169 (PLOS Biology, 2025).
# Assay: in vitro
# Conditions: human, hela cells, % viability
row,Compound,"viability at 28.5 h, 10 µM"
1,COc1ccc(Nc2ncnc3oc(C)c(C)c23)cc1 [CBK288163],93.3%
2,CS(=O)(=O)CCC(C(=O)O)N1C(=O)c2ccc(C(=O)O)cc2C1=O (centres unmarked) [CBK265719],94.5%
3,COc1ccc(NC(=O)c2cnc(-c3cccc(C)c3)c(-c3ccco3)c2)cc1 [CBK037491],83.9%
4,CC(C)[C@H]1CN(Cc2ccco2)CCN1C(=O)c1cscn1 [CBK285490],99.6%
5,COc1ccc(-c2cc(C(=O)NCC3CCNCC3)cnc2-c2ccc(Cl)cc2)cn1 [CBK036700],105%
6,COc1cc(OC)nc(C(NC(=O)C2CCN(Cc3nccs3)CC2)c2ccc(Cl)cc2)n1 (centres unmarked) [CBK148217],85.8%
7,CCNC(=O)N1CC2(CCN(CCS(=O)(=O)c3ccccc3)CC2)c2ccccc21 [CBK126698],90.9%
8,Cc1c(F)cccc1CN(CCCN)C(=O)Nc1ccccc1C(C)(C)C [CBK034699C],89.3%
9,CC(C)(O)C#Cc1ccc(C(=O)NCCC(=O)O)s1 [CBK267704],97.1%
10,N[C@H](CSCc1ccccc1)C(=O)Nc1ccc([N+](=O)[O-])cc1 [CBK074824],88.8%
11,Cn1ccc(N2CCCC(NC(=O)c3scnc3C(C)(C)C)C2=O)n1 (centres unmarked) [CBK305453],94.9%
12,Cc1ccc(C(=O)Oc2cccc(NC(=O)c3ccco3)c2)cc1S(=O)(=O)N1CCOCC1 [CBK263211],94.1%
13,CCc1nc2n(n1)CC(NC1CCCc3ccccc31)CC2 (centres unmarked) [CBK304837],95.6%
14,C(=C\c1cccc(Nc2ccc(Oc3ccccc3)cc2)n1)/c1ccccc1 [CBK037614],94.1%
15,COc1ccc([C@H]2CN(Cc3ccccc3)[C@@H]3CCN(C(=O)c4ccccc4F)C[C@H]23)cc1 [CBK285542],91.1%
16,Nc1ncc(-c2ccsc2)nc1NCC1CCOCC1 [CBK063848],102%
17,N#CCSc1nnc(NC(=O)Nc2ccccc2)s1 [CBK028792],85.3%
18,COCCOCN1C(=O)CC2(C1=O)C(=O)N(Cc1ccc(OC(F)(F)F)cc1)c1ccccc12 (centres unmarked) [CBK075942],94.2%
19,COc1ccc(NS(=O)(=O)c2ccc(N3CCCC3=O)cc2)cn1 [CBK270216],84.9%
20,CCOc1cc(CNCc2ccc(C(=O)O)cc2)ccc1OC [CBK270029C],89.7%
21,CN(C)c1cccc(-c2cccc(NCC(c3cccnc3)N(C)C)n2)c1 (centres unmarked) [CBK037697],117%
22,CC1(CNC(=O)c2ccccc2Cn2cccn2)COC1 [CBK281750],89.4%
23,COc1cccc(C(=O)Nc2nc3ccccc3n2Cc2ccccc2)c1OC [CBK299811],91.4%

row,Compound,"viability at 28.5 h, 10 µM"
1,COCCNC(=O)N(CCC#N)C1CCCCC1 [CBK156358],97.3%
2,CSc1ccc2cc(CSc3nnc(-c4cccs4)n3CC(=O)O)c(Cl)nc2c1 [CBK295298],91.3%
3,CCOC(=O)c1ccc(-n2c(CCC(=O)O)ccc2-c2ccc(F)cc2)cc1O [CBK266010],94.1%
4,O=C(NCc1cc(Br)ccc1F)C1CC(=O)N(Cc2ccccn2)C1 (centres unmarked) [CBK305242],85.7%
5,COc1ncc(-c2cn3ccnc3c(N3CCN(CCO)CC3)n2)c(OC)n1 [CBK037869],107%
6,Cc1cccc(OCCSc2nc3c(N)ncn(Cc4ccccc4)c-3n2)c1 [CBK266843],84.1%
7,CN(CCN(C)/N=C/c1c2ccccc2cc2ccccc12)/N=C/c1c2ccccc2cc2ccccc12 [CBK262039],94.8%
8,Cc1noc(C)c1NC(=O)Cc1cccnc1 [CBK200391],96.6%
9,O=C(c1ccco1)N1CCN(c2cc(-c3cc4ccccc4o3)ncn2)CC1 [CBK091114],102%
10,CCN(CC)CC(C)C(O)(c1ccccc1)c1ccccc1 (centres unmarked) [CBK012065C],95%
11,Cc1cccc(OCC(=O)N2CCN(S(=O)(=O)c3ccc([N+](=O)[O-])cc3)CC2)c1 [CBK264221],89.9%
12,O=C(N[C@@H](Cc1ccc(OCc2ccc(Cl)cc2Cl)cc1)C(=O)O)C1CCCC1 [CBK017610],82.9%
13,O=C(c1ccccc1)N1C[C@@H](c2ccsc2)[C@@H]2CN(Cc3ccccc3F)CC[C@@H]21 [CBK285612],116%
14,Cn1ccnc1C1(O)CCN(C(=O)C2(c3ccccc3)CC2)CC1 [CBK283538],98.4%
15,CNC(=O)c1cccc(NC(=O)C(C)N(C)Cc2cnc(C)s2)c1 (centres unmarked) [CBK305735],81.5%
16,O=C(O)c1ccccc1C(=O)N1CCN(c2ccc([N+](=O)[O-])cc2)CC1 [CBK287181],87.7%
17,Cc1cc(C)n(C(C)C(=O)N(C)CCn2ccnc2C)n1 (centres unmarked) [CBK281759],88.1%
18,Clc1ccc(Nc2ncnc3ccccc23)cc1 [CBK072625],86.1%
19,O=C(NC1CCCCC1)N1Cc2nc[nH]c2C[C@H]1c1nc(-c2ccc3c(c2)OCO3)no1 [CBK289000],95.7%
20,CCOCCn1c(N2CCCC(C)C2)nc2c1c(=O)[nH]c(=O)n2C (centres unmarked) [CBK304304],85.1%
21,CC(=O)N1CCN(c2c(-c3ccccc3)nnc3ccccc23)CC1 [CBK066889],91.2%
22,CCOC(=O)CSc1nc2ccc(I)cc2c(=O)n1Cc1ccccc1 [CBK266602],107%
23,CN(C)Cc1ccccc1Cn1cncc1-c1cnn(C)c1 [CBK281764],99.5%

row,Compound,"viability at 28.5 h, 10 µM"
1,CCC1CCCCN1C(=O)c1cc(Br)c(Br)s1 (centres unmarked) [CBK089360],92.5%
2,CC(C)=NOc1ncccc1C#N [CBK007841],115%
3,Cc1ccc(S(=O)(=O)NC2(C(F)(F)F)NC(=O)N(c3ccc(F)c(Cl)c3)C2=O)cc1 (centres unmarked) [CBK267473],97.2%
4,N#CCCn1cc(C(=O)N2CCCCC2)c(-c2cccc(Br)c2)n1 [CBK306202],89.4%
5,CS(=O)(=O)NC1CCCN(c2ccc3ccccc3n2)C1 (centres unmarked) [CBK306457],99.7%
6,C[C@@H](Nc1cncc(-c2cccs2)n1)c1ccccc1 [CBK065711],108%
7,OCC1CCCN1c1cc(Cl)nc2ccnn12 (centres unmarked) [CBK037011],95.7%
8,Cn1ncc2c(=O)[nH]c(N3CCN(c4cc(C#N)ccn4)CC3)nc21 [CBK304924],92.4%
9,CNc1nc(NCCc2cnc(=O)n(C)c2O)cc(C2CCOC2)n1 (centres unmarked) [CBK307156],105%
10,Fc1ccccc1-c1cn2ccnc2c(N2CCOCC2)n1 [CBK036584],105%
11,Cc1ccc2nc(-c3ccc(-c4ccc(C(C)C)cc4)o3)cc(C(=O)O)c2c1 [CBK300083],96.7%
12,CN1CCCN(Cc2ccc([N+](=O)[O-])s2)CC1 [CBK261558],94%
13,CCCn1ccnc1CNc1nc(C(C)(C)C)nc2c1cnn2C [CBK306739],91.3%
14,COc1cc2c(c(OC)c1OC)C(c1ccccc1C)CC(=O)N2 (centres unmarked) [CBK288205],109%
15,c1cncc(-c2cn3ccnc3c(NCC3CC3)n2)c1 [CBK036609],84%
16,O=C(O)CSc1nnc(-c2ccco2)n1-c1ccccc1 [CBK131685],85.9%
17,C[N+](C)(C)Cc1ccccc1 [CBK011977I],109%
18,CCCCC1C(=O)N(C)CCN1C(=O)NCc1cn2ccc(C)cc2n1 (centres unmarked) [CBK306648],91.8%
19,COc1ccc(C(CNC(=O)Cn2c(-c3cccc(C)c3)n[nH]c2=S)N2CCOCC2)cc1OC (centres unmarked) [CBK297900],88.2%
20,O=C(O)c1ccc(CNC(=O)c2ccc(Cl)c(S(=O)(=O)N3CCCC3)c2)cc1 [CBK297096],95.7%
21,OCCNc1nc2cc(Cl)ccc2[nH]1 [CBK262295],101%
22,CC(=O)N1CCn2nc(C(=O)N(CCO)Cc3ccccc3)cc2C1 [CBK306769],89.3%
23,CCOC(=O)c1cnc(SCc2nc(N)nc(Nc3ccc(F)cc3)n2)nc1N [CBK098477],82.3%

row,Compound,"viability at 28.5 h, 10 µM"
1,Cc1ccc(N(CC(=O)Nc2cccc3ccccc23)S(=O)(=O)c2ccc(F)cc2)cc1 [CBK262707],94.7%
2,COc1cccc(CC(=O)N2CCCC2c2cc(Nc3nc(C)cc(C)n3)cc(C)n2)c1 (centres unmarked) [CBK285999],90.5%
3,Fc1ccccc1CSc1nnc(-c2cnccn2)n1Cc1ccco1 [CBK267556],96.4%
4,CCNC(=O)O[C@@H]1CO[C@H]2[C@@H]1OC[C@@H]2NS(=O)(=O)c1ccccc1C#N [CBK289474],87.6%
5,CCOc1ccccc1C(=O)Nc1cnc(-c2cccc(C)c2)c(-c2ccc(N)cc2)n1 [CBK036783],107%
6,Cc1ccc(-c2nnc(CNC(=O)c3cccc(F)c3F)o2)s1 [CBK284641],91.1%
7,CCC(CN1CCOCC1)NC(=O)Cc1coc2cc(C)cc(C)c12 (centres unmarked) [CBK282812],103%
8,Cn1c(CN2CCCC2)nc2cc(NC(=O)C3CCCCC3)ccc21 [CBK307418],98.6%
9,Cc1nc2ccc(C(=O)NC(C)(C)CN3CCCC(C)C3)cc2[nH]1 (centres unmarked) [CBK282629],85.3%
10,CC(C)(C)OC(=O)COc1cc2oc(=O)cc(-c3ccccc3)c2cc1Cl [CBK263729],87.6%
11,O=C1CCN(Cc2nc(-c3cccc(C(F)(F)F)c3)no2)CCN1 [CBK306368],109%
12,O=c1n(Cc2ccccn2)c2cccnc2n1Cc1cccs1 [CBK283867],90.2%
13,Cn1c(CCC(=O)Nc2ccc3c(c2)CN(Cc2ccccc2)C3)nc2ccccc21 [CBK285990],81.2%
14,O=C(Nc1ccc(C(F)(F)F)cc1)C1CCCS1 (centres unmarked) [CBK006142],92.5%
15,C=CCNC(=O)[C@@H]1C=CCN1S(=O)(=O)c1ccc(Cl)cc1 [CBK284318],90.4%
16,CCC1CN(C(C)=O)CCC1NCc1ccc(OCC(N)=O)cc1 (centres unmarked) [CBK305168],102%
17,O[C@H]1CCC[C@@H]1NCc1ccc(Cl)c(Cl)c1 [CBK005217],87%
18,Cc1ccc2[nH]c(SCC(=O)Nc3cccc(NC(=O)C45CC6CC(CC(C6)C4)C5)c3)nc2c1 [CBK265679],96.3%
19,O=C(Cn1c(NCCCO)nc2ccccc21)c1ccco1 [CBK264099B],94.7%
20,COc1ccc2c(c1OC)C(=O)N(c1cccc(/C=C/C(=O)O)c1)C2 [CBK109932],90.3%
